Measurements from PMC10897196, “Structure–activity characteristics of phenylalanine analogs selectively transported by L-type amino acid transporter 1 (LAT1)” (Scientific Reports, 2024).
Where two headings read alike, the source gives them in different places.

Key:
LAT1 = tested on: LAT1; set-up: method as in PMID 1559223; details: in situ brain perfusion; cited from earlier work
[1] = Plasma concentration-time profile in normal mice after intravenous administration; type: in vivo; details: C57BL/6J mice, i.v., 15, 30, 60, 120 min; 2-F-Tyr 15.6 mg/kg, bicyclic-Phe 15 mg/kg
Description: The blood samples were collected at 15, 30, 60, and 120 min post-administration into lithium heparin-coated tubes (BD, New Jersey, USA) and then centrifuged at 1,500 ×g for 10 min at 23 °C. The resulting plasma was stored at −80 °C pending analysis by HPLC.
(§1) HPLC analyses were conducted as previously described. In brief, tumors and small intestines were homogenized in ice-cold PBS (3 times the tissue weight, v/w). The homogenates were then centrifuged at 15,000 ×g for 40 min at 4 °C. A 10 μL aliquot of the tissue supernatant or plasma was mixed with 190 μL of acetonitrile (MeCN) to precipitate proteins. This mixture was subsequently centrifuged at 15,000 ×g for 30 min at 4 °C. The resulting supernatant (100 μL) was dried, and the residue was reconstituted in 20 μL of 400 mM sodium borate (pH 8.0). Finally, 5 μL of 40 mM 4-fluoro-7-nitro-2,1,3-benzoxadiazole (NBD-F) in MeCN was added for fluorescence derivatization. HPLC analysis was carried out using a NANOSPACE SI-2 HPLC system (Shiseido, Tokyo, Japan) equipped with a fluorescence detector. […] The mobile phase consisted of MeCN, water, and trifluoroacetic acid (TFA) in a 27.5:72.5:0.05 (v/v/v) ratio, delivered at a flow rate of 200 μL/min.

human LAT1 = target: T1, human LAT1 (Homo sapiens, UniProt Q01650); assay: Inhibition of L-[14C]leucine uptake in HEK293-hLAT1 cells; type: cell-based; details: for Ki: L-[14C]leucine uptake
T1 construct: expressed in transfected cells
T1 sequence (Q01650 whole entry, one chain of several): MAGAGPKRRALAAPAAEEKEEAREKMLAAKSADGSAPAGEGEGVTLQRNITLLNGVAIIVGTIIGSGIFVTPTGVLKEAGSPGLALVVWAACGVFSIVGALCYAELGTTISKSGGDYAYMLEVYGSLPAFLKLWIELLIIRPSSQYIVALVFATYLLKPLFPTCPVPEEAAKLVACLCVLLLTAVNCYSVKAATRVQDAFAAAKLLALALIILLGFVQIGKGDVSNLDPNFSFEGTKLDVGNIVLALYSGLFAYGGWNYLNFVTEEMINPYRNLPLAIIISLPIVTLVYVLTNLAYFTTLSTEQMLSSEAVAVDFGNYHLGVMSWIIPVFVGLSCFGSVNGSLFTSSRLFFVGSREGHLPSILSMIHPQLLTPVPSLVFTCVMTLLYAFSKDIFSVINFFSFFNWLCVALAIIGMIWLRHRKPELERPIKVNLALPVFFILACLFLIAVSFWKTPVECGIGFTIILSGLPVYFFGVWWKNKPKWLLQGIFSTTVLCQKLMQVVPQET
Text: (§2) In this study, we used the HEK293 cells stably expressing human LAT1 or human LAT2, which form a heterodimeric complex with endogenous 4F2hc (CD98hc), required for plasma membrane localization. We first explored the impact of halogen group positioning in the benzene ring of Phe (Fig. 1) on its interaction with LAT1 and LAT2. […] We conducted inhibition experiments to measure the uptake of L-[^14C]leucine by LAT1 and L-[^14C]alanine by LAT2 in the presence or absence of Phe derivatives with an iodo group at position 2, 3, or 4 in the benzene ring.
(§3) The inhibition experiments were performed as described previously. HEK293-hLAT1 (1.5 × 10^5 cells/well) or HEK293-hLAT2 (2 × 10^5 cells/well) cells were plated onto poly-D-lysine-coated 24-well plates (Corning, New York, USA). Following a 2-day culture period, the uptake of 1 μM L-[^14C]leucine or L-[^14C]alanine was measured for 1 min in the absence or presence of non-radiolabeled test compounds at concentrations of 10, 30, and 100 μM. Radioactivity was quantified using a β-scintillation counter (LSC-3100; Aloka, Tokyo, Japan), and protein concentrations were determined with a Micro BCA Protein Assay Kit (Thermo Fisher Scientific, Rockford, IL). To calculate Ki values, the concentration-dependent uptake of L-[^14C]leucine or L-[^14C]alanine was analyzed in the presence and absence of test compounds[49]. The data were plotted against substrate concentration and fitted to Michaelis–Menten kinetics. Ki values were derived using nonlinear regression analysis with the enzyme kinetics inhibition module in GraphPad Prism software (Version 10.0.2; GraphPad Software Inc., San Diego, CA, USA).

[2] = Tissue accumulation (plasma, tumor, small intestine) in B16-F10 tumor-bearing mice, HPLC; type: in vivo
Description: Female C57BL/6J mice were subcutaneously injected with 2 × 10^6 B16-F10 cells. The cells were prepared in a mixture containing a 1:1 volume ratio of phosphate-buffered saline (PBS) and Matrigel (Corning, New York, USA), with the total injection volume being 200 μL, administered into the dorsal flank. Tumor growth was measured bi-daily using calipers until tumors reached a size of approximately 300 ~ 500 mm^3, at which point they were deemed palpable. […] Blood samples were collected at 30 and 60 min post-administration. Then both the tumors and small intestines were excised and weighed for subsequent analysis by HPLC.
as §1

human LAT2 = target: T2, human LAT2 (Homo sapiens, UniProt Q9UHI5); assay: Inhibition of L-[14C]alanine uptake in HEK293-hLAT2 cells; type: cell-based
T2 construct: expressed in transfected cells
T2 sequence (Q9UHI5 1-535): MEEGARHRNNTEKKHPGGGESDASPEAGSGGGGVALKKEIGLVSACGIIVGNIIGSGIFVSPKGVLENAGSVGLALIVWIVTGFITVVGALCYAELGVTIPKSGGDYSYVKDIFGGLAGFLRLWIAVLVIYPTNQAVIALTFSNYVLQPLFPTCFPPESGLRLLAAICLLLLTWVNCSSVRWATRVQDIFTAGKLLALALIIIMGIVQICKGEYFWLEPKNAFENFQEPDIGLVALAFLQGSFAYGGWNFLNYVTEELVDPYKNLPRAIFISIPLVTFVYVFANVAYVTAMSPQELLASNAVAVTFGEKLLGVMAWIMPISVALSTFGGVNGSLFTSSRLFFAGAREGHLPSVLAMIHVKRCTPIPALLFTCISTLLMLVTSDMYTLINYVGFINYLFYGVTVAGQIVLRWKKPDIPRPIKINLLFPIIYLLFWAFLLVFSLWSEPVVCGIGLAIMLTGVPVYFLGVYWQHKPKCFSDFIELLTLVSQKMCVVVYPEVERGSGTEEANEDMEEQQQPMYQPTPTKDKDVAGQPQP
T2 sequence (P08195 1-529 partner): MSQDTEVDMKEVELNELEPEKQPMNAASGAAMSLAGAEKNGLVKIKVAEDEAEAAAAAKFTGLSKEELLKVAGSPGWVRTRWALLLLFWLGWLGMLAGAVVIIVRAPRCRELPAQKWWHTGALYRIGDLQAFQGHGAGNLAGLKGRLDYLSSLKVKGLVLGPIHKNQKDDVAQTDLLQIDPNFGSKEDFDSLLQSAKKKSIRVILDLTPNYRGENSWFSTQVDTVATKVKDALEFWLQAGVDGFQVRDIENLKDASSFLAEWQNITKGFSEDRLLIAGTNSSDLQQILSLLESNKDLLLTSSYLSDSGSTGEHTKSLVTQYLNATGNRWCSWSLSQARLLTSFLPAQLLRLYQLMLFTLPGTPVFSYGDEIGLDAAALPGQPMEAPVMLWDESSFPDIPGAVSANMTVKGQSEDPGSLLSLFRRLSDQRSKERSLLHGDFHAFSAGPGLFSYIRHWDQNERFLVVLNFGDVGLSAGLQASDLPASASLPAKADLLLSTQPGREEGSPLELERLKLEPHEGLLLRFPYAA
Text: as §2, §3

N[C@]1(C(=O)O)CCc2ccccc2C1 [bicyclic-Phe, (R)-2-amino-1,2,3,4-tetrahydro-2-naphthoic acid]
Vmax of BBB transport relative to melphalan (LAT1): approximately seven times higher
Plasma concentration (in words) [1]: consistently showing higher levels than 2-F-Tyr
Inhibition of LAT1-mediated L-[14C]leucine uptake (in words, rank order) (human LAT1; 1 μM L-[14C]leucine, 1 min, compounds at 10, 30, 100 μM): inhibit
Ki (human LAT1; Ki for LAT1 calculated at 100 μM of compound, HEK293-hLAT1, inhibitor at 100 μM): 78.2 ± 13.9 µM
Ki (human LAT1; Ki for LAT1 calculated at 300 μM of compound, HEK293-hLAT1, inhibitor at 300 μM): 66.7 ± 7.08 µM
Mode of inhibition of LAT1 (Lineweaver–Burk plot) (human LAT1; L-[14C]leucine 50, 100, 200, 400 μM): competitive manner
Ki (human LAT1; HEK293-hLAT1, mean ± S.E.M., n = 3–4, read-out: Ki (μM) LAT1): 78.2 ± 13.9 µM
Ki ratio (LAT2/LAT1) (human LAT1; LAT1 selectivity, LAT2 Ki over LAT1 Ki): 47.98
Small intestine-to-plasma ratio (I/P) (in words) ([2]; 30 and 60 min after i.v., equimolar doses): significantly lower than that for 2-F-Tyr
Concentration in small intestine compared with plasma ([2]; i.v., normalized to tissue weight / plasma volume): lower than in plasma
Concentration in tumor compared with plasma ([2]; i.v., normalized to tissue weight / plasma volume, 2-F-Tyr at 60 min): higher than in plasma
Inhibition of LAT2-mediated L-[14C]alanine uptake (in words, rank order) (human LAT2; 1 μM L-[14C]alanine, 1 min, compounds at 10, 30, 100 μM): minimal inhibition
Ki (human LAT2; L-[14C]alanine uptake, HEK293-hLAT2, mean ± S.E.M., n = 3–4, read-out: Ki (μM) LAT2): 3750 ± 740 µM
Ki (human LAT2; as quoted in the discussion, read-out: Ki value for LAT2): ~3800 µM
